“Also recorded” adds a separate entry of the source. One block for each compound: values may come before it.
How the values were obtained:
[1] = In vitro stability of ^89Zr complexes in EDTA solution (transchelation challenge, radio-TLC / iTLC); format: physicochemical; set-up: dose or concentration left out as unconfirmed; conditions: 37 °C
Experimental: Stability studies were performed on ^89Zr labeled AAZTHAS and AAZTHAG to test the effect of the pendant arm length on complex stability. […]
(§1) After the purification step and analysis of the radioactive complex via radio-HPLC, the stability assessment of the complex at different time points and in different solutions was carried out. ^89Zr-AAZTHAS and ^89Zr-AAZTHAG were dissolved in formulation buffer, EDTA 5 mM, and human serum in 1:5 v/v ratio and were incubated at 37 °C up to 96 h. […] At each time point the stability was evaluated by radio-iTLC (Elution solution 1) using an instant thin-layer chromatographic strip (iTLC, Agilent).

[2] = Ex vivo biodistribution (tracer accumulation in organs, γ-counter) 24 h p.i.; set-up: species or system female athymic Nude-Foxn1nu/nu mice; conditions: i.v. tail vein, n = 3, ± SD
Experimental: (§2) In order to study the biodistribution and the in vivo stability of the ^89Zr-AAZTHAG, 8 weeks old pathogen-free female athymic Nude-Foxn1nu/nu mice (Charles River Laboratories, Sulzfeld, Germany) (n = 3) were injected via a catheter in the tail vein with 2.9 ± 0.1 MBq of ^89Zr-AAZTHAG in 300 μL NaCl 0.9% solution, and imaged at different time points (30 min, 3 h, 6 h, 9 h, 12 h, 24 h) via PET/CT static acquisition using an Inveon Small Animal PET/CT scanner (Siemens, Knoxville, TN, USA).
Biodistribution studies were also performed to assess the in vivo distribution of the ^89Zr-AAZTHAG complex and evaluate its in vivo stability. After sacrifice, the mice by anesthesia, blood, and other selected organs were collected, weighed, and the activity was measured by a γ-counter. The tracer accumulation in selected organs was expressed as a percentage of injected dose per gram of tissue (%ID/g).

[3] = Small animal PET/CT static scans at different time points; format: in vivo, healthy female nude mice; conditions: six time points 30 min to 24 h, n = 3
Experimental: Based on the good preliminary in vitro stability results, we investigated the behavior of ^89Zr-AAZTHAG in vivo in healthy female nude mice (n = 3) by acquiring PET/CT images at six different time points (30 min, 3 h, 6 h, 9 h, 12 h, and 24 h), and mice were then sacrificed 24 h p.i. to perform a biodistribution study.
as §2

[4] = In vitro stability of ^89Zr complexes in human serum (radio-TLC / iTLC); format: in vitro ADME; conditions: for % of ^89Zr complexed over total activity: human serum (HS)
Experimental: (§3) Stability studies were performed on ^89Zr labeled AAZTHAS and AAZTHAG to test the effect of the pendant arm length on complex stability. The stability of the two ^89Zr-complexes was investigated by radio-TLC after incubation for 72 h at 37 °C in formulation buffer, EDTA 5 mM (1000-fold excess), and human serum (HS).
as §1

[5] = In vitro stability of ^89Zr complexes in formulation buffer (radio-TLC / iTLC); format: physicochemical; conditions: formulation buffer (3 mM gentisic acid + 0.25 M NaOAc, pH 5.5), 37 °C
Experimental: as §3, §1

- % of ^89Zr complexed over total activity ([1]; Day 0): 30.6 ± 30.3%
- % of ^89Zr complexed over total activity ([1]; Day 1): 4.4 ± 3.9%
- % of ^89Zr complexed over total activity ([1]; Day 2): 2.4 ± 0.1%
- % of ^89Zr complexed over total activity ([1]; Day 3): 3.2 ± 2.6%
- Radioactivity accumulated in bladder ([2]; Bladder): 0.049 ± 0.010 %ID/g
- Radioactivity accumulated in blood ([2]; Blood): 0.007 ± 0.005 %ID/g
- Radioactivity accumulated in brain ([2]; Brain): 0.002 ± 0.001 %ID/g
- Radioactivity accumulated in femur ([2]; Femur): 0.193 ± 0.108 %ID/g
- Radioactivity accumulated in heart ([2]; Heart): 0.010 ± 0.004 %ID/g
- Radioactivity accumulated in kidney ([2]; Kidney): 0.575 ± 0.199 %ID/g
- Radioactivity accumulated in large intestine ([2]; Large Intestine): 0.020 ± 0.010 %ID/g
- Radioactivity accumulated in liver ([2]; Liver): 0.041 ± 0.010 %ID/g
- Radioactivity accumulated in lung ([2]; Lung): 0.021 ± 0.007 %ID/g
- Radioactivity accumulated in muscle ([2]; Muscle): 0.006 ± 0.002 %ID/g
- Radioactivity accumulated in pancreas ([2]; Pancreas): 0.016 ± 0.008 %ID/g
- Radioactivity accumulated in small intestine ([2]; Small Intestine): 0.012 ± 0.006 %ID/g
- Radioactivity accumulated in spleen ([2]; Spleen): 0.029 ± 0.005 %ID/g
- Radioactivity accumulated in stomach ([2]; Stomach): 0.014 ± 0.005 %ID/g
- Radioactivity accumulated in tail ([2]; Tail): 0.040 ± 0.013 %ID/g
- Excretion route seen in PET/CT images [3]: hepatobiliary and renal excretion
- Signal in bones during PET acquisition (release of Zr-89) [3]: low signal in bones
- Time for which the ^89Zr-complex is stable in HS ([4]; human serum): at least 4 h
- % of ^89Zr complexed over total activity ([4]; 37 °C, Day 0): 92.0 ± 11.3%
- % of ^89Zr complexed over total activity ([4]; 37 °C, Day 1): 77.7 ± 18.6%
- % of ^89Zr complexed over total activity ([4]; 37 °C, Day 2): 76.9 ± 15.4%
- % of ^89Zr complexed over total activity ([4]; 37 °C, Day 3 (72 h)): 87 ± 5%
- % of ^89Zr complexed over total activity ([4]; 37 °C, Day 3 (72 h), listed as AAZTHAG): 86.4 ± 5.5%
- % of ^89Zr complexed over total activity ([5]; Day 0): 91.5 ± 10.6%
- % of ^89Zr complexed over total activity ([5]; Day 1): 83.0 ± 6.5%
- % of ^89Zr complexed over total activity ([5]; Day 2): 78.1 ± 13.8%
- % of ^89Zr complexed over total activity ([5]; Day 3 (72 h)): 73 ± 5%
- % of ^89Zr complexed over total activity ([5]; Day 3 (72 h), listed as AAZTHAG): 73.0 ± 5.2%
Structure (SMILES): CN(O)C(=O)CCCC(=O)NC1(C)CN(C(=O)CCCC(=O)N(C)O)CCN(C(=O)CCCC(=O)N(C)O)C1 [^89Zr-AAZTHAG, metal not drawn]

- % of ^89Zr complexed over total activity ([1]; Day 0): 15.1%
- % of ^89Zr complexed over total activity ([1]; Day 1): 1.0%
- % of ^89Zr complexed over total activity ([1]; Day 2): 1.6%
- % of ^89Zr complexed over total activity ([4]; 37 °C, Day 0): 71.0%
- % of ^89Zr complexed over total activity ([4]; 37 °C, Day 1): 76.8%
- % of ^89Zr complexed over total activity ([4]; 37 °C, Day 2): 59.2%
- % of ^89Zr complexed over total activity ([4]; 37 °C, Day 3 (72 h)): 46%
- % of ^89Zr complexed over total activity ([5]; Day 0): 71.0%
- % of ^89Zr complexed over total activity ([5]; Day 1): 63.3%
- % of ^89Zr complexed over total activity ([5]; Day 2): 62.3%
- % of ^89Zr complexed over total activity ([5]; Day 3 (72 h)): 42%
Structure (SMILES): CN(O)C(=O)CCC(=O)NC1(C)CN(C(=O)CCC(=O)N(C)O)CCN(C(=O)CCC(=O)N(C)O)C1 [^89Zr-AAZTHAS, metal not drawn]
- Behaviour of the complex on incubation in HS (precipitation) ([4]; human serum, 37 °C): tends to precipitate over time; also recorded: precipitates

From PMC8512011, “A Semi Rigid Novel Hydroxamate AMPED-Based Ligand for ^89Zr PET Imaging” (Molecules, 2021)
